The values below come from ChEMBL document CHEMBL3045969, “Synthesis and evaluation of some new 4-aminopyridine derivatives as a potent antiamnesic and cognition enhancing drugs” (Med Chem Res, 2012).

Format in all cases: functional
What all share (conditions): route intraperitoneal

In experiment [1] the test system is Rattus norvegicus. The experiment in a line: Cognition enhancing activity in Charles Foster albino Rattus norvegicus (rat) assessed as transfer latency time at 200 mg/kg, ip for 2 days measured 1 hr post last dose on day 2 by elevated plus maze test.
The subject of experiment [2] is Rattus norvegicus. Briefly: Cognition enhancing activity in Charles Foster albino Rattus norvegicus (rat) at 200 mg/kg, ip measured 30 min post dose by elevated plus maze test.
For experiment [3], the system named is Rattus norvegicus. The experiment in a line: Antiamnesic activity in scopolamine-induced amnesia Charles Foster albino Rattus norvegicus (rat) model assessed as transfer latency time at 200 mg/kg, ip ip for 2 days measured 1 hr post last dose on day 2 by elevated plus maze test.
The test system of experiment [4] is Rattus norvegicus. Briefly: Antiamnesic activity in scopolamine-induced amnesia Charles Foster albino Rattus norvegicus (rat) model assessed as transfer latency time at 200 mg/kg, ip measured after 30 min by elevated plus maze test.

On to `NC(=O)CN1CCCC1=O` [PIRACETAM], for which the Time in experiment [1] is 45.67 s; in experiment [2], 49.5 s; in experiment [3] it was 43.33 s; in experiment [4], 47 s.
